Measured values as given in patent publication US11739098B2 (BRISTOL-MYERS SQUIBB COMPANY, priority 2017, dated 2023).

Legend:
Format in all cases: cell-based
human TLR7 = biological target: T1, human TLR7 (Homo sapiens, UniProt Q9NYK1); test: TLR7 inhibition reporter assay (HEK-Blue cells, SEAP reporter, gardiquimod stimulation); conditions: HEK-Blue cells overexpressing human TLR7, SEAP reporter, gardiquimod 7.5 μM
T1 construct: host or cells: HEK-Blue cells (HEK293-derived reporter line)
T1 sequence (Q9NYK1 27-1049): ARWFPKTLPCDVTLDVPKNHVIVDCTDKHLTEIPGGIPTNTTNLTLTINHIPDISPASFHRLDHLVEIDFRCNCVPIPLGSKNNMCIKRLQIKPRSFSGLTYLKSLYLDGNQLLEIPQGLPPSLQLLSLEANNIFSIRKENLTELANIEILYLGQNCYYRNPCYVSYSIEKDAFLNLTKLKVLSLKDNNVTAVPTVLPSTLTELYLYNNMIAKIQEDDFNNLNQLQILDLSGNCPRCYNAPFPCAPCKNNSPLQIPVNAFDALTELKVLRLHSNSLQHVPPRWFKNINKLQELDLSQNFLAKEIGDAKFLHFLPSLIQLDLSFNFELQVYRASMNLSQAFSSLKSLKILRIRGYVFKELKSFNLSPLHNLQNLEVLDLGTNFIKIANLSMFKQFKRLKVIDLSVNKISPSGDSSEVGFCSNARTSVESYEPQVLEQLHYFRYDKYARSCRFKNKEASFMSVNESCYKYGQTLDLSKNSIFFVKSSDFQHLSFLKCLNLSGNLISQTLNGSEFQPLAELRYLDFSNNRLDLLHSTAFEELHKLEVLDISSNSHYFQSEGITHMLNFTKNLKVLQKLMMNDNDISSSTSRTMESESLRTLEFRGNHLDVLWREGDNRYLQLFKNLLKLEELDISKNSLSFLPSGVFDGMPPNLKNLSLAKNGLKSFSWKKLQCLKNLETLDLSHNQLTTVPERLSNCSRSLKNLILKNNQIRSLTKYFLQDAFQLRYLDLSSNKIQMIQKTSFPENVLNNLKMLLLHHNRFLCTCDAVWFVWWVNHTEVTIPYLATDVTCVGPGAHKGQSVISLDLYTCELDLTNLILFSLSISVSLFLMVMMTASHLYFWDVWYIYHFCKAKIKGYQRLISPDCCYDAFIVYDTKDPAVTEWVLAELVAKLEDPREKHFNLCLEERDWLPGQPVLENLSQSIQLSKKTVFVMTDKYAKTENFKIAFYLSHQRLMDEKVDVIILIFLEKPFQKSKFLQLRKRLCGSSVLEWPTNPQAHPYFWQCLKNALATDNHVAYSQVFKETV
How it was run: (§1)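 HEK-Blue cells overexpressing the receptor, with NF-κB/AP-1-driven SEAP, were pre-treated 30 min at room temperature with compound (0.05 nM–50 μM), then stimulated with gardiquimod 7.5 μM (TLR7), R848 15.9 μM (TLR8) or ODN2006 5 nM (TLR9). SEAP was read after 22 h at 37 °C as percent inhibition.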

human TLR8 = biological target: T2, human TLR8 (Homo sapiens, UniProt Q9NR97); test: TLR8 inhibition reporter assay (HEK-Blue cells, SEAP reporter, R848 stimulation); conditions: HEK-Blue cells overexpressing human TLR8, SEAP reporter, R848 15.9 μM
T2 construct: host or cells: HEK-Blue cells (HEK293-derived reporter line)
T2 sequence (Q9NR97 27-1041): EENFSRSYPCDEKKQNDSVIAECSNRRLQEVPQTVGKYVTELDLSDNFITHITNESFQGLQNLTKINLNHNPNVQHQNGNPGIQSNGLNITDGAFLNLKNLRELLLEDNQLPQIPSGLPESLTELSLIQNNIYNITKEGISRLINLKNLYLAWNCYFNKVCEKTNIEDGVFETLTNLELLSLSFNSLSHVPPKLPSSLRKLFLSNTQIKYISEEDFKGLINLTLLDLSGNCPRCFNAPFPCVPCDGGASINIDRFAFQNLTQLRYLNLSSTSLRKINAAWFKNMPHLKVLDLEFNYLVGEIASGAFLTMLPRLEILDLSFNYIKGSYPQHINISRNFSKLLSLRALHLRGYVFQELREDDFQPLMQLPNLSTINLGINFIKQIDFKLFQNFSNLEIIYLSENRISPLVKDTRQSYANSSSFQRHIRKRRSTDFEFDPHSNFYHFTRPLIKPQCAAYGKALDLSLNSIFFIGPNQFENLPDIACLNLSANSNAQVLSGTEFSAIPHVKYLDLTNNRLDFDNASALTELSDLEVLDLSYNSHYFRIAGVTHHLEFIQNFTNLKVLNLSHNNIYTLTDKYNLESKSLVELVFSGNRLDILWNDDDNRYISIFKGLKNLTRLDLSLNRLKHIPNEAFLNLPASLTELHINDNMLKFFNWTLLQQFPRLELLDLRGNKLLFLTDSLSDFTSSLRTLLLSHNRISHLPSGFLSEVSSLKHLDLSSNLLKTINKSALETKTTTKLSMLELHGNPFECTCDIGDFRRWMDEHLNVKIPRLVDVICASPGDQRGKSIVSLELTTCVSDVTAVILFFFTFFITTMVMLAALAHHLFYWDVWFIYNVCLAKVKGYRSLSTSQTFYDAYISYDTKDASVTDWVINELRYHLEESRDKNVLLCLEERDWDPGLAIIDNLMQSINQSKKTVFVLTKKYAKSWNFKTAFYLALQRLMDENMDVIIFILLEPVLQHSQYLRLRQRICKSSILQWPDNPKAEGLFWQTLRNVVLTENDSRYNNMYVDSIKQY
How it was run: as §1

human TLR9 = biological target: T3, human TLR9 (Homo sapiens, UniProt Q9NR96); test: TLR9 inhibition reporter assay (HEK-Blue cells, SEAP reporter, ODN2006 stimulation); conditions: HEK-Blue cells overexpressing human TLR9, SEAP reporter, ODN2006 5 nM
T3 construct: host or cells: HEK-Blue cells (HEK293-derived reporter line)
T3 sequence (Q9NR96 26-1032): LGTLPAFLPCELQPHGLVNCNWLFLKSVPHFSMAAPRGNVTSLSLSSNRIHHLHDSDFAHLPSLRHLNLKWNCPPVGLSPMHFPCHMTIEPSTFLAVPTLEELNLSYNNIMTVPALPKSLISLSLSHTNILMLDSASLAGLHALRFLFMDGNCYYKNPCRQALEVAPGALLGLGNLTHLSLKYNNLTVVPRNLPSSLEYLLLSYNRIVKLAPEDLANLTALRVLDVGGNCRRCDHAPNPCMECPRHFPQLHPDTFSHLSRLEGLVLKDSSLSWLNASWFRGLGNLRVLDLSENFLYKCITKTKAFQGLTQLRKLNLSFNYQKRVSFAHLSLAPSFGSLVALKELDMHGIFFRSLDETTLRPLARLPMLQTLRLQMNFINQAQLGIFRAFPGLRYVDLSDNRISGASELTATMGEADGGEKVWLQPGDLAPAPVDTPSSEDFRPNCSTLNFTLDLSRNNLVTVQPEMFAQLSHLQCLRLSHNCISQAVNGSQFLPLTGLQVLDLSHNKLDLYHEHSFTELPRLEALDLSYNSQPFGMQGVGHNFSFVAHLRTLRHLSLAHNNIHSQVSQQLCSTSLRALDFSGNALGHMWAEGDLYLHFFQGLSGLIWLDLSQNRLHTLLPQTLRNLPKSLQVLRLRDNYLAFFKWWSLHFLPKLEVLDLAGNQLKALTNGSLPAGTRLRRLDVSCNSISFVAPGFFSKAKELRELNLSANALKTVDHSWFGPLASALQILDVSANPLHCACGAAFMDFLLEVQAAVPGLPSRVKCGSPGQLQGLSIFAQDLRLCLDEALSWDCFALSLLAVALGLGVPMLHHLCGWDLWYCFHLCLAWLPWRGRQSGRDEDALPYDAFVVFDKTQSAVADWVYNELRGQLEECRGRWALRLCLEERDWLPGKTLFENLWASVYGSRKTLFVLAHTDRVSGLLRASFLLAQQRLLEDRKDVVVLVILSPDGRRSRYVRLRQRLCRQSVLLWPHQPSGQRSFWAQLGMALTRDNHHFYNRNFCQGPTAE
How it was run: as §1

CNCC(=O)N1CCC(c2ccc3[nH]c(-c4cc(C)c5ncccc5c4)c(C(C)C)c3c2)CC1 [Example 560, 1-(4-(3-isopropyl-2-(8-methylquinolin-6-yl)-1H-indol-5-yl)piperidin-1-yl)-2-(methylamino)ethan-1-one]
IC50 (human TLR7): < 0.1 µM
IC50 (human TLR8): < 0.1 µM
IC50 (human TLR9): 1 to 50 µM

Cc1nc2cc(-c3[nH]c4ccc(C5CCNCC5)cc4c3C(C)C)ccn2n1 [Example 156, 7-(3-isopropyl-5-(piperidin-4-yl)-1H-indol-2-yl)-2-methyl-[1,2,4] triazolo[1,5-a]pyridine]
IC50 (human TLR7): < 0.1 µM
IC50 (human TLR8): 0.1 to 1 µM
IC50 (human TLR9): 0.1 to 1 µM

Cc1cc(-c2[nH]c3ccc(C4CCN(C(=O)CN5CCS(=O)(=O)CC5)CC4)cc3c2C(C)C)cn2nnnc12 [Example 485, 2-(1,1-dioxidothiomorpholino)-1-(4-(3-isopropyl-2-(8-methyltetrazolo[1,5-a]pyridin-6-yl)-1H-indol-5-yl)piperidin-1-yl)ethan-1-one]
IC50 (human TLR7): < 0.1 µM
IC50 (human TLR8): < 0.1 µM
IC50 (human TLR9): > 50 µM

CC(C)NCC(=O)N1CCC(c2ccc3[nH]c(-c4ccnc5[nH]ncc45)c(C(C)C)c3c2)CC1 [Example 578, 1-(4-(3-isopropyl-2-(1H-pyrazolo[3,4-b]pyridin-4-yl)-1H-indol-5-yl)piperidin-1-yl)-2-(isopropylamino)ethan-1-one]
IC50 (human TLR7): < 0.1 µM
IC50 (human TLR8): < 0.1 µM
IC50 (human TLR9): 1 to 50 µM

CC(C)c1c(-c2ccnc3[nH]ncc23)[nH]c2ccc(C3CCN(C(=O)c4cn[nH]c4)CC3)cc12 [Example 610, (4-(3-isopropyl-2-(1H-pyrazolo[3,4-b]pyridin-4-yl)-1H-indol-5-yl)piperidin-1-yl)(1H-pyrazol-4-yl)methanone]
IC50 (human TLR7): 0.1 to 1 µM
IC50 (human TLR8): 0.1 to 1 µM
IC50 (human TLR9): 1 to 50 µM

CC(C)c1c(-c2ccc(Cl)c3[nH]ncc23)[nH]c2ccc(C3CCNCC3)cc12 [Example 106, 7-chloro-4-(3-isopropyl-5-(piperidin-4-yl)-1H-indol-2-yl)-1H-indazole]
IC50 (human TLR7): 0.1 to 1 µM
IC50 (human TLR8): 0.1 to 1 µM
IC50 (human TLR9): 1 to 50 µM

CC(C)c1c(-c2ccnc3[nH]ncc23)[nH]c2ccc(C3CCN(C4CCN(C(C)C)CC4)CC3)cc12 [Example 821, 4-(3-isopropyl-5-(1′-isopropyl-[1,4′-bipiperidin]-4-yl)-1H-indol-2-yl)-1H-pyrazolo[3,4-b]pyridine]
IC50 (human TLR7): < 0.1 µM
IC50 (human TLR8): < 0.1 µM
IC50 (human TLR9): < 0.1 µM

CC(C)c1c(-c2cc(F)c3nccn3c2)[nH]c2ccc(C3CCN(C(=O)C[C@@H](C)O)CC3)cc12 [Example 605, (R)-1-(4-(2-(8-fluoroimidazo[1,2-a]pyridin-6-yl)-3-isopropyl-1H-indol-5-yl)piperidin-1-yl)-3-hydroxybutan-1-one]
IC50 (human TLR7): < 0.1 µM
IC50 (human TLR8): 1 to 50 µM
IC50 (human TLR9): > 50 µM

CC(C)c1c(-c2cn(C)c3ncccc23)[nH]c2ccc(C3CCN(C4CCS(=O)(=O)CC4)CC3)cc12 [Example 784, 4-(4-(3-isopropyl-2-(1-methyl-1H-pyrrolo[2,3-b]pyridin-3-yl)-1H-indol-5-yl)piperidin-1-yl)tetrahydro-2H-thiopyran 1,1-dioxide]
IC50 (human TLR7): < 0.1 µM
IC50 (human TLR8): < 0.1 µM
IC50 (human TLR9): 1 to 50 µM

Cc1ccnc2c1c(-c1[nH]c3ccc(C4CCN(C(=O)CN(C)C)CC4)cc3c1C(C)C)cn2C [Example 457, 1-(4-(2-(1,4-dimethyl-1H-pyrrolo[2,3-b]pyridin-3-yl)-3-isopropyl-1H-indol-5-yl)piperidin-1-yl)-2-(dimethylamino)ethan-1-one]
IC50 (human TLR7): < 0.1 µM
IC50 (human TLR8): < 0.1 µM
IC50 (human TLR9): 1 to 50 µM

Cc1cc(-c2[nH]c3ccc(C4CCN(C(=O)CN(C)C)CC4)cc3c2C(C)C)nn2ncnc12 [Example 454, 2-(dimethylamino)-1-(4-(3-isopropyl-2-(8-methyl-[1,2,4]triazolo[1,5-b]pyridazin-6-yl)-1H-indol-5-yl)piperidin-1-yl)ethan-1-one]
IC50 (human TLR7): < 0.1 µM
IC50 (human TLR8): < 0.1 µM
IC50 (human TLR9): 1 to 50 µM

CNC(=O)CN1CCC(c2ccc3[nH]c(-c4cc(C)c5nnnn5c4)c(C(C)C)c3c2)CC1 [Example 312, 2-(4-(3-isopropyl-2-(8-methyltetrazolo[1,5-a]pyridin-6-yl)-1H-indol-5-yl)piperidin-1-yl)-N-methylacetamide]
IC50 (human TLR7): < 0.1 µM
IC50 (human TLR8): < 0.1 µM
IC50 (human TLR9): 1 to 50 µM

CC(C)c1c(-c2ccc3cnnn3c2)[nH]c2ccc(C3CCN(Cc4ncn(C)n4)CC3)cc12 [Example 879, 6-(3-isopropyl-5-(1-((1-methyl-1H-1,2,4-triazol-3-yl)methyl)piperidin-4-yl)-1H-indol-2-yl)-[1,2,3]triazolo[1,5-a]pyridine]
IC50 (human TLR7): 0.1 to 1 µM
IC50 (human TLR8): 0.1 to 1 µM
IC50 (human TLR9): 1 to 50 µM

Cc1cc(-c2[nH]c3ccc(C4CCN(C5CCOCC5)CC4)cc3c2C(C)C)cn2ccnc12 [Example 705, 6-(3-isopropyl-5-(1-(tetrahydro-2H-pyran-4-yl)piperidin-4-yl)-1H-indol-2-yl)-8-methylimidazo[1,2-a]pyridine]
IC50 (human TLR7): < 0.1 µM
IC50 (human TLR8): < 0.1 µM
IC50 (human TLR9): 0.1 to 1 µM
